Legend:
[1] = inhaled ozone; cited from earlier work
[2] = Hematological and clinical chemistry blood parameters; format: in vivo, New Zealand White (NZW) rabbit
Experimental: Arterial blood samples from the central auricular artery of the left tumor free ear were taken on day 14 post inoculation (directly before the first gas insufflation/sham treatment) and on day 19 post inoculation (24 h after the last gas insufflation/sham treatment). Additional blood samples were taken on day 90 from the O3/O2-rem animals (FIG. 1a). For hematological investigations we used an autoanalyzer (Vet abc™ Animal Blood Counter, ABX Diagnostics, Goettingen, Germany), that has been carefully adjusted and validated for the analysis of rabbit blood. For differential blood counts the RBC count was determined together with the hematocrit (HCT) and hemoglobin (HGB). […] Data were expressed as mean values±SEM. For clinical chemistry investigations creatinine, GOT, and GPT values were measured with the Reflovet® Plus system (Roche Diagnostics GmbH, Mannheim, Germany) to monitor for kidney and liver functions.
For comparison of survival rates of the three experimental groups the logrank test was performed considering p values<0.05 as significant. The survival probability of rabbits calculated from the time of tumor cell inoculation until day 90 was depicted according to the Kaplan-Meier method. […] Statistical differences in mean body weight between the experimental groups were evaluated at daily intervals with the unpaired Student's t test with two tail p values. […]

VX2 auricular carcinoma = assay: Therapy of auricular VX2 carcinoma in rabbits by intraperitoneal gas insufflation (survival, tumor clearance, lung metastases); format: in vivo, New Zealand White (NZW) rabbit; details: n=14 (O3/O2), n=13 (O2)

Structure (SMILES) | grade of adverse effect (weight loss) [1] | RBC ([2]; d 14, directly before the first insufflation) | RBC ([2]; d 19, 24 h after the last insufflation) | number of rabbits with remission of the tumor (VX2 auricular carcinoma)
O=[O+][O-] [ozone] | grade II | – | – | –
O=O [O2] | – | 5.68 10^6/mm^3 | 5.31 10^6/mm^3 | two

Reference: US20100189807A1, “Use of an ozone / oxygen mixture as a primary anticancer therapy via intraperitoneal insufflation” (priority 2009, published 2010)
